In US9067920B2, “Compounds useful for inhibiting Chk1” (Eli Lilly and Company, priority 2010, dated 2015):
Structures can show the parent of a compound that is named as a salt.

Columns and labels:
[1] = tested on: HT-29 colon carcinoma cells; assay: ECtfs (two-fold sensitization) assay, gemcitabine potentiation, MTS; format: cell-based
Protocol: An inhibitor of Chk1 can potentiate the anti-proliferative activity of gemcitabine (or other cytotoxics) through abrogation of the intra-S phase checkpoint, resulting in sustained and increased DNA damage. The capacity for continued tumor cell proliferation after DNA damage can be analyzed by determining the ability of cells to replicate their DNA. […] In this assay, cells are treated with a dilution series of gemcitabine, and then 22 h later with the compound of Example 3, After an additional 44 h, the relative cell number is assessed by a MTS (3-(4,5-dimethylthiazol-2-yl)-5-(3-carboxymethoxyphenyl)-2-(4-sulfophenyl)-2H-tetrazolium) dye reduction assay. The ECtfs parameter is a measure of the concentration of a Chk1 inhibitor necessary to reduce by half the (1190 concentration of gemcitabine, measured in this assay in the absence of Chk1 inhibition. HT-29 cells (obtained from ATCC), are grown in RPMI 1640 plus 10% (v/v) heat inactivated FBS, The cells are plated at 2.5×10^3 per well, in a volume of 100 μL on 96-well tissue culture plates and incubated for 24 h. Gemcitabine dilutions are prepared at 6× concentrations in McCoy's 5A medium (modified) (1×) and added to wells at 20 μper well. Gemcitabine dilutions were set up with the highest final concentration of gemcitabine being 1.0 μM and dilutions made by three-fold steps to 0.5 nM.
Chk1 Inhibitor is prepared by dilutions in DMSO to 4000× final concentration, and then diluted 666-fold into McCoy's medium to generate 6× stocks. Chk1 inhibitor dilutions proceed by 2.5-fold steps starting at 25 nM down to 0.3 nM. Twenty-two hours 1.0 after gemcitabine addition, Chk1, inhibitor is added in a volume of 24 μL to wells containing 120 μL of medium plus gemcitabine. Each gemcitabine dilution receives a single Chk1 inhibitor dilution. Control wells received DMSO, gemcitabine, or Chk1 inhibitor alone. Forty-four hours after addition of Chk1 inhibitor, 30 μL of CellTiter 96® AQueous assay reagent, is added to each well and held at room temperature for 1 hour and 45 minutes. Absorbance is read on a SpectraMax 250 (Molecular Devices) spectrophotometer at 490 nm. Data from the SpectraMax spectrophotometer are analyzed with GraphPad Prism 4.0. First, an averaged no cell control absorbance is subtracted from all other values in the matrix of data from each plate. Next, duplicate data points are averaged. Data are normalized for each Chk1 inhibitor concentration, with 0% cell number set as corrected A490=0, and 100% cell number set as the 0 nM gemcitabine mean value. […] Gemcitabine concentrations are converted to log concentrations, and normalized cell number values are converted to percent inhibition (percent inhibition=1.00-normalized value). Transformed data are plotted, and a non-linear regression is run to estimate an IC50 value for gemcitabine at each Chk1 inhibitor concentration. The nonlinear regression is calculated allowing the slope to vary, and without constraints for the top or bottom of the dose-response curves. The ECtfs value is calculated as follows: GI50 values for gemcitabine for each Chk1 inhibitor concentration are determined, plotted, and the concentration of Chk1 inhibitor necessary to decrease the gemcitabine alone GI50 by two-fold is determined by interpolation.
Compounds within the scope of the invention are tested in this assay run substantially as above. For example, the compound of Example 3 is tested and found to have an ECtfs value of 1.0 nM (SE=0.1, n=3). […]

[2] = tested on: Calu-6 lung tumor xenograft; assay: Calu-6 tumor xenograft model, oral administration of Chk1 inhibitor; format: in vivo, nude mice
Protocol: The ability of Chk1 inhibitors to potentiate tumor killing by DNA damaging agents can be determined in vivo using the Calu-6 lung and HT-29 colon tumor xenograft efficacy models. Calu-6 lung cancer cells are cultured in growth media (MEM with Earle's Balanced Salt Solution with L-glutamine supplemented with 10% (v/v) heat inactivated FBS, 1×MEM non-essential amino acids, 1× sodium pyruvate) and HT-29 colon cancer cells (ATCC) are cultured in growth media, (McCoy's 5A medium supplemented with 10% FBS) and expanded.
Cells are harvested and washed twice with phosphate buffered saline and 5×10^6 cells (HT-29) or 1×10^6 a cells (Calu-6) in growth media (without serum) are mixed with equal volume of BD Matrigel™ matrix, then injected subcutaneously into the flank of nude mice (CD-1 nu/nu).
At about day 16 after implant (150-200 mm^3), gemcitabine is formulated fresh in saline daily and administered to animals by intraperitoneal route at 40 mg/kg dose. Twenty four hours later animals are administered Chk1 compound, in 0.2% Tween-80/0.5% methylcellulose by the oral route MD. After three days of rest, dosing was repeated for three additional cycles (Q5Dx4 with the compound of Example 3 offset+24 hours). Tumor growth inhibition (TGI) is calculated as described in the previous paragraph. Compounds within the scope of the invention are tested in this assay run substantially as above.

COc1nc(C)ccc1-c1cc(Nc2cncc(O[C@@H]3CCCNC3)n2)[nH]n1 [Example 3, (R)-[5-(2-Methoxy-6-methyl-pyridin-3-yl)-2H-pyrazol-3-yl]-[6-(piperidin-3-yloxy)-pyrazin-2-yl]-amine acetic acid salt]
decrease of the EC50 of gemcitabine ([1]; HT-29 cells, 25 nM of the compound): 7 fold
ECtfs value ([1]; HT-29 cells, concentration that decreases the gemcitabine GI50 two-fold): 1.0 nM
effect on the proliferation of HT-29 cells ([1]; compound alone, 25 nM): little effect
% TGI at day 37 ([2]; Calu6, Example 3 30 mpk oral alone): 37%
anti-tumor activity in combination with gemcitabine ([2]; Calu-6 xenograft, oral, gemcitabine 40 mg/kg ip): excellent dose dependent anti-tumor activity
